# From ChEMBL document CHEMBL5532720, “A Potent Solution for Tumor Growth and Angiogenesis Suppression via an ELR+CXCL-CXCR1/2 Pathway Inhibitor” (ACS Med Chem Lett, 2024)
# Activity calls are given as the source filed them. No cut-off for these calls is given here.
# What was measured:
# [1] = biological target: Serine/threonine-protein kinase TAO1 (Homo sapiens) (UniProt Q7L7X3); assay: Inhibition of TAOK1 (unknown origin) at 10 uM in presence of ATP at Km concentration
# [2] = biological target: Mitogen-activated protein kinase kinase kinase kinase 3 (Homo sapiens) (UniProt Q8IVH8); assay: Inhibition of MAP4K3 (unknown origin) at 10 uM in presence of ATP at Km concentration
# [3] = biological target: Casein kinase I isoform epsilon (Homo sapiens) (UniProt P49674); assay: Inhibition of CSNK1E (unknown origin) at 10 uM in presence of ATP at Km concentration
# [4] = Half-life in NOD SCID mouse at 200 mg/kg, po; assay type: ADME, organism-based; details: in vivo
# [5] = Toxicity in athymic nude mouse xenografted with human 786-0 cells assessed as effect on behavior at 100 mg/kg, po administered twice daily via gavage for 28 days; assay type: organism-based; details: in vivo, 672 h, time 28 day
# [6] = Genotoxicity in Salmonella typhimurium TA100 upto 100 uM in presence of S9 fraction by Ames test; assay type: toxicity, subcellular; details: salmonella enterica subsp. enterica serovar typhimurium, s9, 100 µM
# [7] = AUC (0 to infinity) in NOD SCID mouse at 1 mg/kg, iv; assay type: ADME, organism-based; details: in vivo
# [8] = biological target: Mitogen-activated protein kinase 15 (Homo sapiens) (UniProt Q8TD08); assay: Inhibition of MAPK15 (unknown origin) at 10 uM in presence of ATP at Km concentration
# [9] = biological target: Mitogen-activated protein kinase kinase kinase kinase 4 (Homo sapiens) (UniProt O95819); assay: Inhibition of MAP4K4 (unknown origin) at 10 uM in presence of ATP at Km concentration
# [10] = Oral bioavailability in NOD SCID mouse at 100 mg/kg; assay type: ADME, organism-based; details: in vivo
# [11] = Half-life in NOD SCID mouse at 50 mg/kg, po; assay type: ADME, organism-based; details: in vivo
# [12] = C0 in NOD SCID mouse at 1 mg/kg, iv; assay type: ADME, organism-based; details: in vivo
# [13] = Stability in human plasma assessed as half-life; assay type: ADME, cell-free
# [14] = test system: A498; assay: Inhibition of CXCL8 secretion in human A498 cells at 1 to 2.5 uM incubated for 48 hrs by ELISA; assay type: functional, cell-based; details: dose 1-2.5 µM
# [15] = biological target: Tyrosine-protein kinase Fyn (Homo sapiens) (UniProt P06241); assay: Inhibition of FYN (unknown origin) at 10 uM in presence of ATP at Km concentration
# [16] = biological target: Tyrosine-protein kinase Yes (Homo sapiens) (UniProt P07947); assay: Inhibition of YES1 (unknown origin) at 10 uM in presence of ATP at Km concentration
# [17] = Protein binding in human plasma; assay type: ADME, cell-free; details: read-out: PPB (converted)
# [18] = Genotoxicity in Salmonella typhimurium TA98 upto 100 uM in presence of S9 fraction by Ames test; assay type: toxicity, subcellular; details: salmonella enterica subsp. enterica serovar typhimurium, s9, 100 µM
# [19] = biological target: Protein kinase C eta type (Homo sapiens) (UniProt P24723); assay: Inhibition of PRKCH (unknown origin) at 10 uM in presence of ATP at Km concentration
# [20] = biological target: [Pyruvate dehydrogenase (acetyl-transferring)] kinase isozyme 1, mitochondrial (Homo sapiens) (UniProt Q15118); assay: Inhibition of PDK1 (unknown origin) at 10 uM in presence of ATP at Km concentration
# [21] = biological target: Serine/threonine-protein kinase PAK 4 (Homo sapiens) (UniProt O96013); assay: Inhibition of PAK4 (unknown origin) at 10 uM in presence of ATP at Km concentration
# [22] = Stability in mouse hepatocytes assessed as half-life; assay type: ADME, cell-based, Hepatocyte
# [23] = Stability in human plasma assessed as compound remaining measured after 120 mins; assay type: ADME, cell-free; details: read-out: Stability
# [24] = biological target: Vascular endothelial growth factor receptor 2 (Homo sapiens) (UniProt P35968); assay: Inhibition of KDR (unknown origin) at 10 uM in presence of ATP at Km concentration
# [25] = biological target: Serine/threonine-protein kinase tousled-like 2 (Homo sapiens) (UniProt Q86UE8); assay: Inhibition of TLK2 (unknown origin) at 10 uM in presence of ATP at Km concentration
# [26] = Stability in human microsomes assessed as compound remaining measured after 1 hrs; assay type: ADME, Microsome; details: read-out: Stability
# [27] = Genotoxicity in Salmonella typhimurium TA1537 upto 100 uM in absence of S9 fraction by Ames test; assay type: toxicity; details: salmonella enterica subsp. enterica serovar typhimurium, s9, 100 µM
# [28] = Stability in mouse microsomes assessed as half-life; assay type: ADME, Microsome
# [29] = Toxicity in athymic nude mouse xenografted with human 786-0 cells assessed as effect on food consumption at 100 mg/kg, po administered twice daily via gavage for 28 days; assay type: organism-based; details: in vivo, 672 h, time 28 day
# [30] = biological target: Tyrosine-protein kinase receptor UFO (Homo sapiens) (UniProt P30530); assay: Inhibition of AXL (unknown origin) at 10 uM in presence of ATP at Km concentration
# [31] = test system: Cisplatin and radiotherapy resistant CAL33RR; assay: Inhibition of CXCL8-dependent cell migration in human Cisplatin and radiotherapy resistant CAL33RR cells at 0.5 uM incubated for 24 hrs by Boyden chamber based crystal violet staining analysis; assay type: functional
# [32] = test system: RCC4; assay: Antiproliferative activity against human RCC4 cells incubated for 48 hrs by XTT assay; assay type: functional, cell-based; details: RCC4, 48 h
# [33] = biological target: Phosphatidylinositol 4-phosphate 5-kinase type-1 gamma (Homo sapiens) (UniProt O60331); assay: Inhibition of PIP5K1C (unknown origin) at 10 uM in presence of ATP at Km concentration
# [34] = biological target: Focal adhesion kinase 1 (Homo sapiens) (UniProt Q05397); assay: Inhibition of PTK2 (unknown origin) at 10 uM in presence of ATP at Km concentration
# [35] = test system: A498; assay: Inhibition of cell invasion in human A498 cells cultured as 3D spheroids at 5 uM measured after 7 days by light microscopic imaging analysis relative to control; assay type: functional; details: A498, 168 h, time 7 day
# [36] = biological target: Tyrosine-protein kinase JAK1 (Homo sapiens) (UniProt P23458); assay: Inhibition of JAK1 (unknown origin) at 10 uM in presence of ATP at Km concentration
# [37] = biological target: Serine/threonine-protein kinase SIK3 (Homo sapiens) (UniProt Q9Y2K2); assay: Inhibition of SIK3 (unknown origin) at 10 uM in presence of ATP at Km concentration
# [38] = biological target: Insulin receptor (Homo sapiens) (UniProt P06213); assay: Inhibition of INSR (unknown origin) at 10 uM in presence of ATP at Km concentration
# [39] = Stability of compound at pH 2 measured after 24 hrs; assay type: physicochemical; details: buffer, pH 2, 24 h
# [40] = biological target: Misshapen-like kinase 1 (Homo sapiens) (UniProt Q8N4C8); assay: Inhibition of MINK1 (unknown origin) at 10 uM in presence of ATP at Km concentration
# [41] = biological target: G protein-coupled receptor kinase 5 (Homo sapiens) (UniProt P34947); assay: Inhibition of GRK5 (unknown origin) at 10 uM in presence of ATP at Km concentration
# Chain of Tyrosine-protein kinase receptor UFO (Homo sapiens) (P30530 whole entry): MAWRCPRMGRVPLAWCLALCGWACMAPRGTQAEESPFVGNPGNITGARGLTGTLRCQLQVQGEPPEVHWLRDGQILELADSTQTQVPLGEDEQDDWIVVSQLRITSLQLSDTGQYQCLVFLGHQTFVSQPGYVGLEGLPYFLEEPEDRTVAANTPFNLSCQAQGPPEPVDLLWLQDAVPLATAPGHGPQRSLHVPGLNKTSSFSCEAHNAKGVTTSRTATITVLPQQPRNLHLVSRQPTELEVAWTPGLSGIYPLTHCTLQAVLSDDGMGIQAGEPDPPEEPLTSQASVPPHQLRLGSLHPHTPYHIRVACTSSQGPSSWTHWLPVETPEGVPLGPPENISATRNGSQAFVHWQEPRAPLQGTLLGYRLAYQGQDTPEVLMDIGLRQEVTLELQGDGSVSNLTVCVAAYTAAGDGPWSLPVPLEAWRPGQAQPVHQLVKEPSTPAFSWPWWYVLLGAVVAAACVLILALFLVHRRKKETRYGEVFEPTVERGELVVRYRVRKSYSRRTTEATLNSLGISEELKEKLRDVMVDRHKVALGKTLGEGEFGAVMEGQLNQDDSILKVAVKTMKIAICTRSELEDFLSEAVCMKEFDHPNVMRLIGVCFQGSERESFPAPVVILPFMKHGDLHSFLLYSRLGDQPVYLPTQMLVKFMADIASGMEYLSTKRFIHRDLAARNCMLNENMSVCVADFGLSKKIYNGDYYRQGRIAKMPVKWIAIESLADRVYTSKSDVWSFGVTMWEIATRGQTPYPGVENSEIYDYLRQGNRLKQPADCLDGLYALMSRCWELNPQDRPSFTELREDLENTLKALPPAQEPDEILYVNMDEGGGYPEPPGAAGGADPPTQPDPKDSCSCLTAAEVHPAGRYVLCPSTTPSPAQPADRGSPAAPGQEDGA
# Chain of Casein kinase I isoform epsilon (Homo sapiens) (P49674 whole entry, looked up, canonical isoform): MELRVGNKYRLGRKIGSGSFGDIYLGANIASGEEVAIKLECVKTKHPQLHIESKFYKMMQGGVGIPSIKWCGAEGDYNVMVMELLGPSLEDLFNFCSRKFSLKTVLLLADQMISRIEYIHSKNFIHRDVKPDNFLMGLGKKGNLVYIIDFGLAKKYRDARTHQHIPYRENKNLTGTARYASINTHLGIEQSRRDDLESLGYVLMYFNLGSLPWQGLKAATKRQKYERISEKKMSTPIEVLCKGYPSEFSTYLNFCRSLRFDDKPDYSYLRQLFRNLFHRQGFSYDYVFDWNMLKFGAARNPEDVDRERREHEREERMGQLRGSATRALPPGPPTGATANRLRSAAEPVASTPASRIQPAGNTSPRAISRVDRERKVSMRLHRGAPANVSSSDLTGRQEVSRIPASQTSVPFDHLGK
# Chain of Mitogen-activated protein kinase kinase kinase kinase 3 (Homo sapiens) (Q8IVH8 whole entry, canonical isoform): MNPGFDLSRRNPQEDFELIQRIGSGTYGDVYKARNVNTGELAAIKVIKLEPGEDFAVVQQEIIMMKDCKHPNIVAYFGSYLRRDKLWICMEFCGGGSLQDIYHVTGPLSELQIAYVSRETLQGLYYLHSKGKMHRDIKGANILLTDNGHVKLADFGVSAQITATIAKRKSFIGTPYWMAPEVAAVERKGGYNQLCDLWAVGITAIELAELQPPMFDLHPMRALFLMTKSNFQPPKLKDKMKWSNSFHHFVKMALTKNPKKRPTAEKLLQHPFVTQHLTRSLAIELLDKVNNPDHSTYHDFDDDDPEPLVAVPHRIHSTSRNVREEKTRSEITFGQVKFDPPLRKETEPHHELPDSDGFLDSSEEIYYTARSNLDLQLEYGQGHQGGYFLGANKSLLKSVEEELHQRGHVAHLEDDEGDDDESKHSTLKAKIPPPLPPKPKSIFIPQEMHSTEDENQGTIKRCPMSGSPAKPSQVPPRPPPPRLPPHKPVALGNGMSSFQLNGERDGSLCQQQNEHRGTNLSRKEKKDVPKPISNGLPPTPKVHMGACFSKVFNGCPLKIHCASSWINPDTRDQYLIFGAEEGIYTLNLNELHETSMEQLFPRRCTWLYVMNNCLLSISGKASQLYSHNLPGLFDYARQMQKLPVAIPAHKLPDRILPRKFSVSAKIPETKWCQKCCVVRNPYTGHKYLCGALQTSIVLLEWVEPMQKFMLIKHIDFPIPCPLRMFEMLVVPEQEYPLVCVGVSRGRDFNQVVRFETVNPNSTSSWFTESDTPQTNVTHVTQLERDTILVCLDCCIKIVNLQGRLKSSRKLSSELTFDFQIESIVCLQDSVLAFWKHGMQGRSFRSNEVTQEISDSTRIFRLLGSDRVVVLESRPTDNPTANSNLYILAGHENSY
# Chain of Misshapen-like kinase 1 (Homo sapiens) (Q8N4C8 whole entry, looked up): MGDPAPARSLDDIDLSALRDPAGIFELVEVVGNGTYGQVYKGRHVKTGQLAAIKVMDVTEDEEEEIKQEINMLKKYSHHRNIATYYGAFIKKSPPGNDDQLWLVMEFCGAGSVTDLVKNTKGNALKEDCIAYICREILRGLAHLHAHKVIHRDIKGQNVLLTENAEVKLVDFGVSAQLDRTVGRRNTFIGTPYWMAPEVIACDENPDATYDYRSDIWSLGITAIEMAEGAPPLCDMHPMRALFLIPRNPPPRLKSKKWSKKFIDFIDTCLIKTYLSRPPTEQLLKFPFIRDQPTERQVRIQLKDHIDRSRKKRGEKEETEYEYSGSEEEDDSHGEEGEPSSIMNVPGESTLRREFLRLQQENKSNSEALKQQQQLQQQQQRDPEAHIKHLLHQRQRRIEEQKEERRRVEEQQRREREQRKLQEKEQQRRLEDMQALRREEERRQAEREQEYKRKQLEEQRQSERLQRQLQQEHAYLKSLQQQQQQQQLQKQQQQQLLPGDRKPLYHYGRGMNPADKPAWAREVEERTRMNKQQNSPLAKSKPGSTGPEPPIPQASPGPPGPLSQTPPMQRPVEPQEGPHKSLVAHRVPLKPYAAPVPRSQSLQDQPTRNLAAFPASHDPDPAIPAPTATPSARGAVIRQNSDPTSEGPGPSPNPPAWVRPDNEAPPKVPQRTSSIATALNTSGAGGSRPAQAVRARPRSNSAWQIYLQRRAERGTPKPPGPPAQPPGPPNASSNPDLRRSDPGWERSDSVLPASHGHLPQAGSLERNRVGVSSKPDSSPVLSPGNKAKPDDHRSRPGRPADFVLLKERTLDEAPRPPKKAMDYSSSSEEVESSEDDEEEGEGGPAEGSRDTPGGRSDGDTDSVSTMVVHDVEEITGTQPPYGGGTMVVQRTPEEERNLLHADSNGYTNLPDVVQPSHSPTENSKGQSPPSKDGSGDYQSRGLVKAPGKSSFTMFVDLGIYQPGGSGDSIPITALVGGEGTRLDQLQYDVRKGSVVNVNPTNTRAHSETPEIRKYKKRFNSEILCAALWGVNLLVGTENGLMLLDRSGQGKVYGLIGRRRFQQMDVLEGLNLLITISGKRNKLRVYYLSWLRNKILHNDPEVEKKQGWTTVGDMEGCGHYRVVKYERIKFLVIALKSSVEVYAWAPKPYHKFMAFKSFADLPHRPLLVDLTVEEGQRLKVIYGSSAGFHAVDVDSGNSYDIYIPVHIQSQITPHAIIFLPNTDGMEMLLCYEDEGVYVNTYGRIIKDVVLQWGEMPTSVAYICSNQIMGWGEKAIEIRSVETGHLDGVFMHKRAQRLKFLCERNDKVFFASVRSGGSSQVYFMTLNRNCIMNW
# Chain of Insulin receptor (Homo sapiens) (P06213 28-758 limits assumed): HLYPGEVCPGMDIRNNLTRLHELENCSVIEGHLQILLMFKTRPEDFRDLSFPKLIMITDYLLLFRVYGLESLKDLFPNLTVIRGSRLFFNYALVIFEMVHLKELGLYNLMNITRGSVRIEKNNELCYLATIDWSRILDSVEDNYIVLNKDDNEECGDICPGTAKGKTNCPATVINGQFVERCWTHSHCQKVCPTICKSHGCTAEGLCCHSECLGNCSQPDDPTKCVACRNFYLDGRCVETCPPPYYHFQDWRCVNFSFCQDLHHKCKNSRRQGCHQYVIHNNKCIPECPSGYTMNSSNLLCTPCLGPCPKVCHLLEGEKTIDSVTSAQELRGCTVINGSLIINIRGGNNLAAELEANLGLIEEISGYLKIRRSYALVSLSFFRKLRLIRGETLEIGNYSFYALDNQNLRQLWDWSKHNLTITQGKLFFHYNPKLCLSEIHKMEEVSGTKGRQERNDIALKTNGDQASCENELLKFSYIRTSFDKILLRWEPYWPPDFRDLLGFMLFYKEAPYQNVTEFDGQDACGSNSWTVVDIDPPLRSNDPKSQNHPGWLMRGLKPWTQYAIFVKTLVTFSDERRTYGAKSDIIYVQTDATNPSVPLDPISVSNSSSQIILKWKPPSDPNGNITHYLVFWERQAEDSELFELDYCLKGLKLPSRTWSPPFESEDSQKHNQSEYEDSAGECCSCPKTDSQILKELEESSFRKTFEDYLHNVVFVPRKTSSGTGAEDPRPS
# Chain of Insulin receptor (Homo sapiens) (P06213 763-1382 limits assumed): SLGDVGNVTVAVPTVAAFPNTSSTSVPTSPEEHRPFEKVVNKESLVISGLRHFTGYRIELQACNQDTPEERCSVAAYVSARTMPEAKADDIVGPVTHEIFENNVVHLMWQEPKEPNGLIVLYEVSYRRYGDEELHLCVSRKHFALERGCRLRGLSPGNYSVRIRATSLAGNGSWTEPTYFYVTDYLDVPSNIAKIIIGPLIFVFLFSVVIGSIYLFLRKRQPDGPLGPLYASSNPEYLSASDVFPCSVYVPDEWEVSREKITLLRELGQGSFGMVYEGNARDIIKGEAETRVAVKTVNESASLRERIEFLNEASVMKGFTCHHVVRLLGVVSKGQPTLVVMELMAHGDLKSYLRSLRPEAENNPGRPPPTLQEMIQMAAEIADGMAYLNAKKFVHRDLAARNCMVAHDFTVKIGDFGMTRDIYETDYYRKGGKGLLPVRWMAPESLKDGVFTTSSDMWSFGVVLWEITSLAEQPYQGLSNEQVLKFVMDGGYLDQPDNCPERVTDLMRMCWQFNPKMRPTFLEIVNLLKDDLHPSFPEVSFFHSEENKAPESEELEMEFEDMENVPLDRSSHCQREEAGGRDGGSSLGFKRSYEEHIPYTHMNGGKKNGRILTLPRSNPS
smiles,measurement,setting,value
O=C(Nc1cc(Cl)cc(Cl)c1)Nc1nc2ccc([N+](=O)[O-])cc2s1,inhibition,[1],inactive
same,inhibition,[2],inactive
same,inhibition,[3],inactive
same,half-life,[4],2.7 h
same,Activity,[5],Non-Toxic
same,Activity,[6],Non-Toxic
same,AUC(0-inf),[7],433 ng·h/mL
same,inhibition,[8],inactive
same,inhibition,[9],inactive
same,bioavailability,[10],33%
same,half-life,[11],1.8 h
same,C0,[12],3.6 µM
same,half-life,[13],> 4.82 h
same,inhibition,[14],Active
same,inhibition,[15],inactive
same,inhibition,[16],inactive
same,fraction unbound,[17],0.004
same,Activity,[18],Non-Toxic
same,inhibition,[19],inactive
same,inhibition,[20],inactive
same,inhibition,[21],inactive
same,half-life,[22],0.352 h
same,remaining at 2 h,[23],85%
same,inhibition,[24],inactive
same,inhibition,[25],inactive
same,remaining at 1 h,[26],71%
same,Activity,[27],Non-Toxic
same,half-life,[28],> 1 h
same,Activity,[29],Non-Toxic
same,inhibition,[30],inactive
same,inhibition,[31],Active
same,IC50,[32],2000 nM
same,inhibition,[33],inactive
same,inhibition,[34],inactive
same,inhibition at 5 µM,[35],> 75%
same,inhibition,[36],inactive
same,inhibition,[37],inactive
same,inhibition,[38],inactive
same,Stability,[39],Stable
same,inhibition,[40],inactive
same,inhibition,[41],inactive
